Source: ChEMBL document CHEMBL5543162, “Discovery of a Novel Orally Bioavailable FLT3-PROTAC Degrader for Efficient Treatment of Acute Myeloid Leukemia and Overcoming Resistance of FLT3 Inhibitors” (J Med Chem, 2024)
The source made the active and inactive calls. The calls are words filed in the database; no cut-off is given here.

Legend:
[1] = Stability in human liver microsomes assessed as intrinsic clearance; format: ADME, Microsome; settings: read-out: CLH
[2] = Toxicity in NSG mouse xenografted with human MV4-11 cells expressing luciferase assessed as physiological change at 10 mg/kg, po administered daily for 3 weeks; format: organism-based; settings: in vivo, 504 h
[3] = tested on: Protein cereblon/Receptor-type tyrosine-protein kinase FLT3 (Homo sapiens), P36888+Q96SW2 [UNDEFINED MUTATION]; test: PROTAC activity at CRBN/FLT3-ITD in human MV4-11 cells assessed as effect on PI3K-Akt signalling pathway by KEGG analysis; format: cell-based
Cytochrome P450 2C9 = Cytochrome P450 2C9 (Homo sapiens, UniProt P11712); test: Inhibition of CYP2C9 (unknown origin); format: ADME
[4] = Toxicity in nu/nu mouse xenografted with human MV4-11 cells assessed as change in body weight at 1.25 to 10 mg/kg, po administered daily for 2 weeks; format: organism-based; settings: in vivo, 336 h, dose 1.25-10 mg/kg
MV4-11 [5] = test: Induction of cell cycle arrest at G1 phase in human MV4-11 cells at 5 nM incubated for 24 hrs by PI/RNase staining based flow cytometry relative to control; format: functional
[6] = Stability in Sprague-Dawley rat intestinal fluid at 50 ug/ml incubated upto 8 hrs by LC-MS/MS analysis; format: ADME, tissue-based, Intestine; settings: simulated gi fluid, at 50 µg/mL
[7] = tested on: Protein cereblon/Receptor-type tyrosine-protein kinase FLT3 (Homo sapiens), P36888+Q96SW2 [UNDEFINED MUTATION]; test: PROTAC activity at CRBN/FLT3-ITD in human MV4-11 cells assessed as protein degradation by TMT-based global proteomic profiling analysis; format: cell-based
MOLM-13 [8] = test: Antiproliferative activity against human MOLM-13 cells incubated for 48 hrs by CCK8 assay; format: functional, cell-based; settings: MOLM-13, 48 h
[9] = tested on: Protein cereblon/Receptor-type tyrosine-protein kinase FLT3 (Homo sapiens), P36888+Q96SW2 [UNDEFINED MUTATION]; test: PROTAC activity at CRBN/FLT3-ITD mutant in human MOLM-13 cells assessed as protein degradation at 20 nM by Western blot analysis; format: cell-based; settings: time <= 12.0 hrs, TDE = time-dependent effect
Mus musculus = test: Anti-leukemic activity in NSG mouse xenografted with human MV4-11 cells expressing luciferase assessed as decrease in CD45+/CD33+ cells proportion in bone marrow at 1.25 to 10 mg/kg, po administered daily for 3 weeks; format: functional, organism-based; settings: dose 1.25-10 mg/kg
[10] = Cmax in Sprague-Dawley rat at 10 mg/kg, po measured for 24 hrs by LC-MS/MS analysis; format: ADME, organism-based; settings: in vivo
MOLM-13 [11] = test: Induction of cell cycle arrest at G1 phase in human MOLM-13 cells incubated for 24 hrs by PI/RNase staining based flow cytometry; format: functional; settings: dose 1-50 nM
[12] = Stability in rat liver microsomes assessed as intrinsic clearance; format: ADME, Microsome; settings: read-out: CLH
BaF3 = test: Antiproliferative activity against mouse Ba/F3 cells expressing FLT3-ITD D835V mutant incubated for 48 hrs by CCK8 assay; format: functional, cell-based; settings: BaF3, 48 h
[13] = Stability in mouse liver microsomes assessed as intrinsic clearance; format: ADME, Microsome; settings: read-out: CLH
[14] = tested on: Protein cereblon/Receptor-type tyrosine-protein kinase FLT3 (Homo sapiens), P36888+Q96SW2 [UNDEFINED MUTATION]; test: PROTAC activity at CRBN/FLT3-ITD mutant in human MOLM-13 cells assessed as decrease in ERK level at 20 nM by Western blot analysis; format: cell-based; settings: time <= 12.0 hrs, TDE = time-dependent effect
MV4-11 [15] = test: Antitumor activity against human MV4-11 cells xenografted with nude mouse assessed as decrease in tumor growth at 120 mg/kg, po administered daily measured after 3 days; format: functional, organism-based; settings: time 3.0 day
[16] = Volume of distribution at steady state in Sprague-Dawley rat at 10 mg/kg, po measured for 24 hrs by LC-MS/MS analysis; format: ADME, organism-based; settings: in vivo
MV4-11 [17] = test: In vivo PROTAC activity at CRBN/FLT3-ITD mutant in human MV4-11 cells xenografted in nu/nu mouse assessed as protein degradation at 1.25 mg/kg, po administered daily for 2 weeks by immunoblot analysis; format: functional, organism-based
[18] = Stability in monkey liver microsomes assessed as intrinsic clearance; format: ADME, Microsome; settings: chlorocebus aethiops, read-out: CLH
[19] = tested on: Protein cereblon/Receptor-type tyrosine-protein kinase FLT3 (Homo sapiens), P36888+Q96SW2 [UNDEFINED MUTATION]; test: PROTAC activity at CRBN/FLT3-ITD mutant in human MOLM-13 cells assessed as decrease in S6K level at 20 nM by Western blot analysis; format: cell-based; settings: time <= 12.0 hrs, TDE = time-dependent effect
[20] = Stability in dog liver microsomes assessed as hepatic clearance; format: ADME, Canis lupus familiaris, Microsome
[21] = tested on: Protein cereblon/Receptor-type tyrosine-protein kinase FLT3 (Homo sapiens), P36888+Q96SW2 [UNDEFINED MUTATION]; test: PROTAC activity at CRBN/FLT3-ITD mutant in human MV4-11 cells assessed as protein degradation at 100 nM incubated for 8 hrs in presence of bortezomib by Western blot analysis; format: cell-based
[22] = tested on: Protein cereblon/Receptor-type tyrosine-protein kinase FLT3 (Homo sapiens), P36888+Q96SW2 [UNDEFINED MUTATION]; test: PROTAC activity at CRBN/FLT3-ITD mutant in human MV4-11 cells assessed as protein degradation at 100 nM incubated for 24 hrs followed by compound washout measured upto 48 hrs by Western blot analysis; format: cell-based; settings: time 72.0 hrs
Cytochrome P450 2C19 = Cytochrome P450 2C19 (Homo sapiens, UniProt P33261); test: Inhibition of CYP2C19 (unknown origin); format: ADME
Cytochrome P450 2D6 = Cytochrome P450 2D6 (Homo sapiens, UniProt P10635); test: Inhibition of CYP2D6 (unknown origin); format: ADME
Cytochrome P450 1A2 = biological target: T1, Cytochrome P450 1A2 (Homo sapiens, UniProt P05177); test: Inhibition of CYP1A2 (unknown origin); format: ADME
T1 sequence (P05177 whole entry): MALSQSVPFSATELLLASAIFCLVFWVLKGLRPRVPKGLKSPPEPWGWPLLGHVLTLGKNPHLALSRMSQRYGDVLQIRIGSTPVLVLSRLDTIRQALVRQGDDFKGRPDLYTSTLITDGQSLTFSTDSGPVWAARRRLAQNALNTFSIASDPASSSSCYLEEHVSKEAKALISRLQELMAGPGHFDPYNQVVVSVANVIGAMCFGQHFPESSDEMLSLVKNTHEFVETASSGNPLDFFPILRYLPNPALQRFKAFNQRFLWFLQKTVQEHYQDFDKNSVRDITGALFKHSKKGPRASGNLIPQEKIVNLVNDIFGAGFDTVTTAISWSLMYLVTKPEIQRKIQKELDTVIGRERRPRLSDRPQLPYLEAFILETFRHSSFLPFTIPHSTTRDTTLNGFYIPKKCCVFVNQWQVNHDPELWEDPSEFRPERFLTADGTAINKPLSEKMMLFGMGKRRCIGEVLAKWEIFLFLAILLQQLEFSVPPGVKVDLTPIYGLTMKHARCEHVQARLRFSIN

MV4-11 [23] = test: Antitumor activity against human MV4-11 cells xenografted in nu/nu mouse at 10 mg/kg, po administered daily for 2 weeks relative to control; format: functional; settings: MV4-11, 336 h, read-out: TGI
[24] = biological target: Protein cereblon/Receptor-type tyrosine-protein kinase FLT3 (Homo sapiens, UniProt P36888+Q96SW2); test: PROTAC activity at CRBN/FLT3-ITD mutant in human MOLM-13 cells assessed as protein degradation by Western blot analysis; format: cell-based
MV4-11 [25] = test: Induction of cell cycle arrest at G1 phase in human MV4-11 cells at 1 nM incubated for 24 hrs by PI/RNase staining based flow cytometry relative to control; format: functional
[26] = Toxicity in nude mouse xenografted with human MV4-11 cells assessed as change in body weight at 120 mg/kg, po administered daily for 15 days; format: organism-based; settings: in vivo, 360 h, time 15 day

Protein cereblon/Receptor-type tyrosine-protein kinase FLT3 (Homo sapiens), P36888+Q96SW2 [UNDEFINED MUTATION], sequence (P36888 whole entry, looked up, stated change not applied): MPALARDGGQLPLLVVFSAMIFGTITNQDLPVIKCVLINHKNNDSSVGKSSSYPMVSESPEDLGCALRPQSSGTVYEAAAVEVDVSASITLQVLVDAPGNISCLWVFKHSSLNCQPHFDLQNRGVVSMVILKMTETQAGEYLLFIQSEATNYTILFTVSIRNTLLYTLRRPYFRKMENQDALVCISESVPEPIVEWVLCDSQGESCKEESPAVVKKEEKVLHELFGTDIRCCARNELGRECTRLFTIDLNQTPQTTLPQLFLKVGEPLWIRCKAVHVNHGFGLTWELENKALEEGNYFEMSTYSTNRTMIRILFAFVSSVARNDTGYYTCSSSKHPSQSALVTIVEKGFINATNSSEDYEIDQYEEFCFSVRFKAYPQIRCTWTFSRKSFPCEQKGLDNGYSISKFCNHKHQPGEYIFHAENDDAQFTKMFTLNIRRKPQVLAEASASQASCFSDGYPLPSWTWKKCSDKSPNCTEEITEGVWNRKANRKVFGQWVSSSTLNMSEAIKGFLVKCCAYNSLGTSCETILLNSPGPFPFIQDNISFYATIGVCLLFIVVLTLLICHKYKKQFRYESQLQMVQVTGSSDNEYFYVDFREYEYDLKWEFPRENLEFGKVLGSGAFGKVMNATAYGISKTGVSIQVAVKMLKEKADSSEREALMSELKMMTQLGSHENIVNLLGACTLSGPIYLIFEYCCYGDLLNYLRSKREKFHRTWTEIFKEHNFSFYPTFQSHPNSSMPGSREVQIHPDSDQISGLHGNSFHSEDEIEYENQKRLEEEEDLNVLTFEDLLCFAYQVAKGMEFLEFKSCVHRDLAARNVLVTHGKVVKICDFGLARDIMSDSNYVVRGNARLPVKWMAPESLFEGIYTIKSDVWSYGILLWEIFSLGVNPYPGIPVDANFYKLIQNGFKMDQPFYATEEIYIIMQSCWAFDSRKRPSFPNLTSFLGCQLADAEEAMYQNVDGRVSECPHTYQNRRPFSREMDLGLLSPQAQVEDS
Protein cereblon/Receptor-type tyrosine-protein kinase FLT3 (Homo sapiens), P36888+Q96SW2 [UNDEFINED MUTATION], sequence (Q96SW2 whole entry, looked up, stated change not applied): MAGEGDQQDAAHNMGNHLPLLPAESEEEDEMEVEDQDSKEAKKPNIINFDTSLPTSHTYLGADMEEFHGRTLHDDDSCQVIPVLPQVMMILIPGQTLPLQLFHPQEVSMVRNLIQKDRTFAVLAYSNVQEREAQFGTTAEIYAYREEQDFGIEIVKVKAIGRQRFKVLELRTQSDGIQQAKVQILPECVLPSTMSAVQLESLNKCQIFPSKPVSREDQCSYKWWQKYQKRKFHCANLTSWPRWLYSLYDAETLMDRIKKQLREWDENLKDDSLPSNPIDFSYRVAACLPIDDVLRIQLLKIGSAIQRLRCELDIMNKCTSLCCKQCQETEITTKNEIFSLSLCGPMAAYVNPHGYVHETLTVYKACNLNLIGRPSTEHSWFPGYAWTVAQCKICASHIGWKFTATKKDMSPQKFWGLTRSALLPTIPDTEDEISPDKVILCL
Cytochrome P450 2D6, sequence (P10635 whole entry): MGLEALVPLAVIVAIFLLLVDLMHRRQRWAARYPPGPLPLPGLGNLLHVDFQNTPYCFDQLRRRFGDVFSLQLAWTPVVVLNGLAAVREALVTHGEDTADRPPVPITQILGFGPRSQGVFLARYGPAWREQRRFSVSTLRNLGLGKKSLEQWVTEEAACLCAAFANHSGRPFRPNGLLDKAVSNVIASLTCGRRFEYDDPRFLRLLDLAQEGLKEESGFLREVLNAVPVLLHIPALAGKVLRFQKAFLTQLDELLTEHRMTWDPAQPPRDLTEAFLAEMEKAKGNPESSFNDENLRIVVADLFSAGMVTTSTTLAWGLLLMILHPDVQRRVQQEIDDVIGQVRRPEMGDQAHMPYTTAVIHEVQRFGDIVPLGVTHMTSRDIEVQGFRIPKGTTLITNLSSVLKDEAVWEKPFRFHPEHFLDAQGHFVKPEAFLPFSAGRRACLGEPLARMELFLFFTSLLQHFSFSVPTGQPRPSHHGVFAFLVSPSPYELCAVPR
Cytochrome P450 2C19, sequence (P33261 whole entry): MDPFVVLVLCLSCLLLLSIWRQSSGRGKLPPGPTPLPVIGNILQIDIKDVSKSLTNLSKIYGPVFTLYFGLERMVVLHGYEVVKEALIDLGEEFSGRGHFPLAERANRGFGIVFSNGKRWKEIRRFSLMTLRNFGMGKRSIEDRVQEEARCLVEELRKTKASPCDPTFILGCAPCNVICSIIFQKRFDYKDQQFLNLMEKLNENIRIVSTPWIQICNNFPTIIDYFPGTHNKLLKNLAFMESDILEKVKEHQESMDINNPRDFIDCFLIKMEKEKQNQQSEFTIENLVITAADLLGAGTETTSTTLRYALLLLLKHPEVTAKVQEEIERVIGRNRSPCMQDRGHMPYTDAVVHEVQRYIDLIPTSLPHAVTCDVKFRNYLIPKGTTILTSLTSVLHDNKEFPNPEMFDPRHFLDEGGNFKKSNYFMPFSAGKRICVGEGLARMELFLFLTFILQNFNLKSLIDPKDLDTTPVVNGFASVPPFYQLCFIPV
Cytochrome P450 2C9, sequence (P11712 whole entry): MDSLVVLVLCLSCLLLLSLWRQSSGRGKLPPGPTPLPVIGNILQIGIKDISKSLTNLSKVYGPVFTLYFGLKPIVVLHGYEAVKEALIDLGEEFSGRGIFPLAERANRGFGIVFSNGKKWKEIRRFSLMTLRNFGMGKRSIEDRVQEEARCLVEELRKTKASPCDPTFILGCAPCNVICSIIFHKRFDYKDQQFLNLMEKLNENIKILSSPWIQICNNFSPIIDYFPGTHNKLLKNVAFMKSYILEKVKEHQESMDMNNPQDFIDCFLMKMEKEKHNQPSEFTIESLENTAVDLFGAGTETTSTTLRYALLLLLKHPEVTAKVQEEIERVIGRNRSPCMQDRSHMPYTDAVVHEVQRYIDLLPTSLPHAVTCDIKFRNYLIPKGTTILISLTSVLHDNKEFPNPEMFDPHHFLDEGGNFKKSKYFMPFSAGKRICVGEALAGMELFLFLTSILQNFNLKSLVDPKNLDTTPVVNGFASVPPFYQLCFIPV
Protein cereblon/Receptor-type tyrosine-protein kinase FLT3, sequence (P36888 whole entry, looked up, change not shown): as the sequence (P36888 whole entry, looked up, stated change not applied) above
Protein cereblon/Receptor-type tyrosine-protein kinase FLT3, sequence (Q96SW2 whole entry, looked up, change not shown): as the sequence (Q96SW2 whole entry, looked up, stated change not applied) above

## Cc1c(NC(=O)CN2CCN(CC3CCN(c4ccc5c(c4)C(=O)N(C4CCC(=O)NC4=O)C5=O)CC3)CC2)c[nH]c1/C=C1\C(=O)Nc2ccc(F)cc21 (configuration not stated)
[1]
  CLint scaled: 23.1 mL/min/kg
[2]
  Activity: Non-Toxic
[3]
  Activity: Active
Cytochrome P450 2C9
  IC50: > 50000 nM
[4]
  Activity: Non-Toxic
MV4-11 [5]
  Activity: 85.5%
[6]
  Stability: Stable
[7]
  Activity: Active
MOLM-13 [8]
  IC50: 170 nM
[9]
  Activity: Tde
Mus musculus
  Activity: Active
[10]
  Cmax: 1120 ng/mL
MOLM-13 [11]
  Activity: Dose-Dependent Effect
[12]
  CLint scaled: 27 mL/min/kg
BaF3
  IC50: 45.1 nM
[13]
  CLint scaled: 92.7 mL/min/kg
[14]
  Activity: Tde
MV4-11 [15]
  Activity: Active
[16]
  Vdss: 5.7 L/kg
MV4-11 [17]
  Activity: Active
[18]
  CLint scaled: 50.7 mL/min/kg
[19]
  Activity: Tde
[20]
  CLhep predicted: 11.3 mL/min/kg
[21]
  Activity: inactive
[22]
  Activity: Active
Cytochrome P450 2C19
  IC50: > 50000 nM
Cytochrome P450 2D6
  IC50: > 50000 nM
Cytochrome P450 1A2
  IC50: > 50000 nM
MV4-11 [23]
  inhibition in vivo at 10 mg/kg: 100%
[24]
  DC50: 20.1 nM
MV4-11 [25]
  Activity: 82%
[26]
  Activity: Non-Toxic
